The values that follow come from ChEMBL document CHEMBL3879902, “Compounds and methods for kinase modulation, and indications thereof” (2012).

Data set [1] can be described thus: Aqueous solubility of the compound in simulated intestinal fluid at pH 6.8. The following applies: simulated gi fluid. The format is ADME.
Data set [2] can be described thus: Aqueous solubility of the compound in hepes buffer at pH 7.4. It counts as physicochemical.
Data set [3] can be described thus: Aqueous solubility of the compound in simulated intestinal fluid at pH 4.5. It counts as ADME. The conditions noted are these: simulated gi fluid.
A short description of data set [4]: Aqueous solubility of the compound in simulated gastric fluid at pH 1.5. It counts as ADME. The conditions noted are these: simulated gi fluid.

In the case of `CCCS(=O)(=O)Nc1ccc(F)c(C(=O)c2c[nH]c3ncc(-c4ccc(OCCCN5CCOCC5)nc4)cc23)c1F`, the solubility entry in data set [1] was “Insoluble”; in data set [2], “Insoluble”; in data set [3], “Soluble”; in data set [4] it was “Soluble”.

In the case of `CCCS(=O)(=O)Nc1ccc(F)c(C(=O)c2c[nH]c3ncc(-c4cnc(C)nc4)cc23)c1F`, the solubility entry in data set [1], in data set [2], in data set [3] and in data set [4] was “Soluble” in each case.

In the case of `CCCS(=O)(=O)Nc1ccc(F)c(C(=O)c2c[nH]c3ncc(-c4ccc(OCCN5CCOCC5)nc4)cc23)c1F`, the solubility entry is given as “Insoluble” in data set [1], “Insoluble” in data set [2], “Soluble” in data set [3] and “Soluble” in data set [4].

`CCCS(=O)(=O)Nc1cccc(C(=O)c2c[nH]c3ncc(-c4cnc(OC)nc4)cc23)c1F`: the solubility result in data set [1], in data set [2], in data set [3] and in data set [4] was “Insoluble” throughout.

With `CCCS(=O)(=O)Nc1ccc(F)c(C(=O)c2c[nH]c3ncc(-c4ccc(N5CCCC5)nc4)cc23)c1F`, the solubility result in data set [1], in data set [2], in data set [3] and in data set [4] was “Insoluble” in each case.

On to `CCCS(=O)(=O)Nc1cccc(C(=O)c2c[nH]c3ncc(-c4cnc(N(C)C)nc4)cc23)c1F`, for which the solubility result in data set [1], in data set [2], in data set [3] and in data set [4] was “Insoluble” in each case.

Regarding `CCCS(=O)(=O)Nc1ccc(F)c(C(=O)c2c[nH]c3ncc(-c4cnc(N5CCCC5)nc4)cc23)c1F`, the solubility entry in data set [1] is reported as “Insoluble”; in data set [2] it was “Insoluble”; in data set [3], “Insoluble”; in data set [4], “Soluble”.

Take `CCCS(=O)(=O)Nc1ccc(F)c(C(=O)c2c[nH]c3ncc(-c4ccc(C)nc4)cc23)c1F`: the solubility result in data set [1] is “Insoluble”; in data set [2], “Insoluble”; in data set [3] it was “Soluble”; in data set [4], “Soluble”.

As to `CCCS(=O)(=O)Nc1ccc(F)c(C(=O)c2c[nH]c3ncc(-c4ccc(OCCCN5CCCC5)nc4)cc23)c1F`, the solubility result in data set [1] is recorded as “Insoluble”; in data set [2], “Insoluble”; in data set [3], “Soluble”; in data set [4], “Insoluble”.

Take `CCCS(=O)(=O)Nc1ccc(F)c(C(=O)c2c[nH]c3ncc(-c4cnc(N5CCOCC5)nc4)cc23)c1F`: the solubility result in data set [1] is “Insoluble”; in data set [2], “Insoluble”; in data set [3], “Insoluble”; in data set [4], “Soluble”.

`CCCS(=O)(=O)Nc1ccc(F)c(C(=O)c2c[nH]c3ncc(C#CCOC)cc23)c1F`: the solubility entry in data set [1] is reported as “Insoluble”; in data set [2], “Soluble”; in data set [3], “Soluble”; in data set [4] it was “Insoluble”.

In the case of `C#Cc1cnc2[nH]cc(C(=O)c3c(F)ccc(NS(=O)(=O)CCC)c3F)c2c1`, the solubility entry in data set [1], in data set [2], in data set [3] and in data set [4] was “Insoluble” each time.

As for `CCCS(=O)(=O)Nc1ccc(F)c(C(=O)c2c[nH]c3ncc(-c4ccc(C#CCN(CC)CC)nc4)cc23)c1F`, the solubility result in data set [1], in data set [2], in data set [3] and in data set [4] was “Insoluble” in each case.

As to `CCCS(=O)(=O)Nc1ccc(F)c(C(=O)c2c[nH]c3ncc(-c4ccc(N(C)C)nc4)cc23)c1F`, the solubility result in data set [1] was “Soluble”; in data set [2], “Soluble”; in data set [3], “Insoluble”; in data set [4], “Soluble”.

With `CCCS(=O)(=O)Nc1ccc(F)c(C(=O)c2c[nH]c3ncc(-c4ccc(OCCN5CCCC5)nc4)cc23)c1F`, the solubility result is “Insoluble” in data set [1], “Soluble” in data set [2], “Soluble” in data set [3] and “Insoluble” in data set [4].
